“And” between values parts separate entries of the source, which are not always exact repeats. Equal values may be shown once. Read-outs that look alike come from different tables or passages of the source.
Assays:
ET-1 induced vasospasm = test: Rabbit ET-1 induced vasospasm model, retinal blood flow; format: in vivo
Protocol: Adult, male Dutch-belted rabbits were given a 20 μl intravitreal injection (IVT) of 0.5 μg of ET-1 followed by a 20 μl intravitreal injection of 10-100 μg Edonentan given 30 min after the ET-1 administration. IOP, optical coherence tomography-angiography (OCT-A), and fluorescein angiograms (FA) were performed at pre-specified time points (30, 45, 60, and 75 min) following ET-1 and Edonentan administration to assess retinal blood flow changes induced by ET-1+/−Edonentan. […] To evaluate the effect of retinal blood flow following intravitreally administered endothelin-1 (ET-1) followed by the antagonist Edonentan in the rabbit, rabbits (Oryctolagus cuniculus) were given a 20 μL intravitreal injection of ET-1 in the left eye followed by a 20 μL intravitreal injection of Edonentan at 2 (or 3) different doses (e.g. 0.1 μg, 0.5 μg, 2.5 μg). The pulse ox, tonometry, optical coherence tomography angiography (OCTA), fluorescein angiography (FA) and retinal leakage scoring were performed for evaluation.

laser-induced glaucoma = test: Laser-induced non-human primate glaucoma model, optic nerve head blood flow (LSFG); format: in vivo, rhesus macaque, Macaca mulatta; settings: IVT 50 μL of 0.02, 0.2 or 2.0 mg/mL, glaucomatous eye, over 6 hours
Protocol: Non-human primates (rhesus macaque, Macaca mulatta) were obtained for this study. One eye of each animal underwent induction of elevation of intraocular pressure (IOP) by repeated laser photocoagulation of the trabecular meshwork. Imaging sessions were repeated to monitor the optic nerve head (ONH) and retinal structural changes. A study was performed to compare an experimental glaucoma eye and a contralateral healthy eye (control) of three non-human primates in global average mean blur rate (MBR) and MBR change from baseline over time as an index of ONH blood flow in a laser-induced glaucoma model. More specifically, a vehicle control, 0.02 mg/mL of Edonentan, 0.2 mg/mL of Edonentan, or 2.0 mg/mL of Edonentan was intravitreally administered (50 μL) to a glaucomatous eye of each of three non-human primates (rhesus macaque, Macaca mulatta). These graphs show the ONH blood flow in the three non-human primates after IVT administration of a vehicle alone (FIG. 7A, FIG. 7E, and FIG. 7I), 0.02 mg/mL of Edonentan (FIG. 7B, FIG. 7F, and FIG. 7J), 0.2 mg/mL of Edonentan (FIG. 7C, FIG. 7G, and FIG. 7K) or 2.0 mg/mL of Edonentan (FIG. 7D, FIG. 7H, and FIG. 7L).

Stability in solid state = format: physicochemical; settings: 2 h @ l25° C.
From the text: (§1) In the above table, the physicochemical data, e.g., solubility, were obtained following standard protocols known in the field (see, e.g., Reis et al., Mini Rev Med Chem., 2010, 10(11):1071-6; Avdeef et al., Expert Opin Drug Metab Toxicol., 2005, 1(2):325-42; Bharate et al., Comb Chem High Throughput Screen., 2016, 19(6):461-9; and Jain et al., J Pharm Biomed Anal., 2013, 86:11-35); and the biochemical data, i.e., potency for ETA/ETB, were obtained following the protocols known in the field (see, e.g., Kirkby et al., Br J Pharmacol., 2008, 153(6):1105-19; and Maguire et al., Br J Pharmacol., 2014, 171(24):5555-72).

Solubility = format: physicochemical
From the text: as §1

Permeability (PAMPA) = format: in vitro ADME; settings: rating in words
From the text: as §1

[1] = tested on: oxygen-induced ischemic retinopathy; test: Mouse oxygen-induced ischemic retinopathy (OIR) model; format: in vivo, mice; settings: IVT 1 μL of 2 μg/μL, single dose; 24, 48, 96 hours
Protocol: A relevant mice model was used to obtain the retinal hypoxia area in mice with oxygen-induced ischemic retinopathy (OIR) at different time points, as shown in FIG. 4. […] Briefly, at P17, mice with OIR (n=60) were given an injection of ET-1 antagonist (1 μL of 2 μg/μL Edonentan formulation, single dose) in one eye and PBS in the fellow eye. At 24, 48, and 96 hours after injection, mice (n=10 for each time point) were euthanized and the retinas were dissected and stained with GSA lectin and hypoxyprobe. The area of NV, area of retinal hypoxia, and the area of retinal nonperfusion were determined for each retina.

ETA/ETB receptor = test: ETA/ETB selectivity (specificity); format: biochemical; settings: ETA versus ETB, rating in words
From the text: as §1

ETB receptor = biological target: T1, ETB receptor (Homo sapiens, UniProt P24530); test: Functional potency for ETB receptor; format: biochemical
T1 sequence (P24530 27-442): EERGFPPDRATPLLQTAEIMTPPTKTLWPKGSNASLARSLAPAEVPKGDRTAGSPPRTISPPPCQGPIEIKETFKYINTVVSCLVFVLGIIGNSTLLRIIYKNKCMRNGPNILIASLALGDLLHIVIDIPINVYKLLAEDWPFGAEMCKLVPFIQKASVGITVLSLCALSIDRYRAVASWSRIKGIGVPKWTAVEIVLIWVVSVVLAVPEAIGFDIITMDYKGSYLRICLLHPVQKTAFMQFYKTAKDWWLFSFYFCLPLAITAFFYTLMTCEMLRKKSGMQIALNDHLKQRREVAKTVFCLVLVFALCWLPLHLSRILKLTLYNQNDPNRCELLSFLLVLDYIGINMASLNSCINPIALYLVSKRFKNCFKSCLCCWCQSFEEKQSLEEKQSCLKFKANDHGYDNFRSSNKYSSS
From the text: as §1

[2] = Pharmacokinetics after topical or oral administration in the rat; format: in vivo, Brown Norway rats
Protocol: After the administrations, the animals (N=2) were euthanized at different time points (e.g. 4 and 8 hours) and tissues were collected for analysis. List of tissues collected include plasma, retina/retinal pigment epithelium (RPE)/choroid, vitreous humor and aqueous humor.

In the case of `Cc1onc(NS(=O)(=O)c2ccccc2-c2ccc(-c3ncco3)cc2CN(C)C(=O)CC(C)(C)C)c1C` [Edonentan, N-[[2′-[[(4,5-dimethyl-3-isoxazolyl)amino]sulfonyl]-4-(2-oxazolyl)[1,1′-biphenyl]-2-yl]methyl]-N,3,3-trimethylbutanamide], the “Fluorescein dye velocity, dose dependence” value (ET-1 induced vasospasm; 0.1 μg ET-1 and 0.1, 0.5, 2.5 or 10 μg Edonentan IVT, FIG. 8A/8B) is reported as “dose-response”, the “Effect of ET-1 (retinal vasoconstriction) after antagonist, fluorescein angiography” value (ET-1 induced vasospasm; 0.5 μg ET-1 IVT, 10 μg Edonentan IVT 30 min after ET-1) is reported as “reversed” and the “Time to reversal of ET-1 effect” value (ET-1 induced vasospasm; 0.5 μg ET-1 IVT, 10 μg Edonentan IVT, time after ET-1 (60 min after Edonentan)) is reported as no more than 90 min. For the same compound, the “Fluorescein dye velocity as an index of retinal blood flow” value (ET-1 induced vasospasm; 0.5 μg ET-1 and 10 μg antagonist IVT, healthy rabbits, FIG. 3) was “improved to control levels”, the “Optic nerve head (ONH) blood flow, mean blur rate (MBR)” value (laser-induced glaucoma) was “improvement of ONH blood flow in a dose-dependent manner” and the “Stability in Solid State (rating)” value (Stability in solid state) was “Stable”. The solubility (Solubility; aqueous buffer, pH 7, amorphous form, read-out: Solubility at pH 7) was 326 µg/mL and 607 µM, the solubility (Solubility; ethyl acetate, organic solvent or mixture, read-out: Solubility in Ethyl Acetate) was > 8900 µg/mL and > 16800 µM and the “Solubility in Ethyl Acetate (rating)” value (Solubility; ethyl acetate, rating in words) was “Good”. The solubility (Solubility; pH 2, simulated gastric fluid, read-out: Solubility at pH 2) was < 0.54 µg/mL and < 1 µM, the “Permeability (rating)” value (Permeability (PAMPA)) was “Mid-High” and the Retinal hypoxia area [1] was “improvement”. The “Specificity (rating)” value (ETA/ETB receptor) was “High specificity”, the IC50 (ETB receptor) was 590 nM and the “Detection in aqueous humor” value ([2]; oral, 17 mg/kg) was “detectable”. For the same compound, the “Detection in retina/RPE/choroid and vitreous humor” value ([2]; oral, 1.7 and 17 mg/kg) was “detectable” and the “Detection in retina/RPE/choroid, aqueous humor and vitreous humor” value ([2]; topical eye drop 100 μg, 4 and 8 hours post-administration) was “detected”.

Reference: patent US11738007B2, “Treatment of glaucoma using endothelin receptor antagonists” (Perfuse Therapeutics, Inc., priority 2019, dated 2023)
